According to paper PMC11713119, “Optimizing metabolic stability of phosphodiesterase 5 inhibitors: Discovery of a potent N‐(pyridin‐3‐ylmethyl)quinoline derivative targeting synaptic plasticity” (Alzheimer's & Dementia, 2025):

Target: T1, Phosphodiesterase 5 (PDE5) (Homo sapiens, UniProt O76074)
T1 construct: gene PDE5A
Assay: PDE5 inhibition IC50 (assay details not given)
Assay type: biochemical

IC50 | SMILES
20 nM | COc1ccc(CNc2c(CO)cnc3c(C4CC4)cc(C#N)cc23)cn1 [4b, 8‐cyclopropyl‐3‐(hydroxymethyl)‐4‐(((6‐methoxypyridin‐3‐yl)methyl)amino)quinoline‐6‐carbonitrile]
0.27 nM | COc1ccc(CNc2c(CO)cnc3c(C4CC4)cc(C#N)cc23)cc1Cl [7a, 4‐((3‐chloro‐4‐methoxybenzyl)amino)‐8‐cyclopropyl‐3‐(hydroxymethyl)quinoline‐6‐carbonitrile]
